These results are taken from patent EP1945226B1, “DRUG COMBINATION WITH ANALGESIC, ANTI-INFLAMMATORY AND DECONGESTIVE ACTIVITY” (Voicu, A. Victor, priority 2005, dated 2006).

The test system of this assay is edema induced by carrageenan. As to the kind of experiment: experimental inflammation model with carrageenan at the rats' posterior paws. Format: in vivo, Wistar rats. The note with it: rat, administered independently. On the procedure: The anti-inflammatory effect was found via the experimental inflammation model with carrageenan at the rats' posterior paws. For the experimental research, we used Wistar rats with 120±10g weight, in groups of 9 animals.
1% carrageenan saline solution was administered by subcutaneous injection (0.1 mL volume) In the posterior paw.
The anti-inflammatory combination was administered 1 hour before carrageenan. The posterior paws' dimensions were measured before and 3 hours after carrageenan solution injection. The contra lateral paw was used as reference. The following combination was used for the experiments:
This (combination, formulated as) suspension was administered orally (gavage), in dosage of 0.2 mL/100 g rat body weight.
Acetylsalicylic acid was administered independently, in doses of 250 mg/kg body weight, equivalent to the quantity used in the combination. Chlorpheniramine was also (independently) administered by oral route, as reference, in doses equivalent to 6 mg/kg body weight.
On the technique in general: Carrageenan injected into the paw causes an acute inflammation.

Turning to `CC(=O)Oc1ccccc1C(=O)O` [acetylsalicylic acid], the “anti-inflammatory effect (reduces pow edema), mean value” (250 mg/kg body weight) is recorded as “approximately 22%”.
With `CN(C)CCC(c1ccc(Cl)cc1)c1ccccn1` (centres unmarked) [chlorpheniramine], the anti-inflammatory effect result (oral route, 6 mg/kg body weight) is reported as “no anti-inflammatory effect”.
